# Structures can show the parent of a compound that is named as a salt.
# Tests used:
# Jurkat cells = assay: Calcium release assay (Fluo-4 flow cytometry after anti-CD3 stimulation); format: cell-based; conditions: Homo sapiens, Jurkat cell line J77, anti-CD3 activation, read-out: IC50 (Calcium ion release in cells)
# Summary of the method: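 Jurkat J77 cells loaded with Fluo-4/Pluronic F-127 for 30 min at 37 °C, then incubated with compound at room temperature in the dark in PBS–CaCl2 with 10% FCS. Stimulation with anti-CD3 (0.2 μg/ml final) plus GAM (0.75 μg/ml final) at 37 °C, then flow-cytometric Ca2+ fluorescence acquired for 200 s.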
# ZAP-70 = biological target: T1, ZAP-70 (Homo sapiens, UniProt P43403); assay: ZAP-70 kinobeads assay; format: binding; conditions: competition with immobilized aminopyrido-pyrimidine ligand 24 in cell lysate; ZAP-70 detected by dot blot
# T1 construct: endogenous in cells; host or cells: cell lysate
# T1 sequence (P43403 1-619): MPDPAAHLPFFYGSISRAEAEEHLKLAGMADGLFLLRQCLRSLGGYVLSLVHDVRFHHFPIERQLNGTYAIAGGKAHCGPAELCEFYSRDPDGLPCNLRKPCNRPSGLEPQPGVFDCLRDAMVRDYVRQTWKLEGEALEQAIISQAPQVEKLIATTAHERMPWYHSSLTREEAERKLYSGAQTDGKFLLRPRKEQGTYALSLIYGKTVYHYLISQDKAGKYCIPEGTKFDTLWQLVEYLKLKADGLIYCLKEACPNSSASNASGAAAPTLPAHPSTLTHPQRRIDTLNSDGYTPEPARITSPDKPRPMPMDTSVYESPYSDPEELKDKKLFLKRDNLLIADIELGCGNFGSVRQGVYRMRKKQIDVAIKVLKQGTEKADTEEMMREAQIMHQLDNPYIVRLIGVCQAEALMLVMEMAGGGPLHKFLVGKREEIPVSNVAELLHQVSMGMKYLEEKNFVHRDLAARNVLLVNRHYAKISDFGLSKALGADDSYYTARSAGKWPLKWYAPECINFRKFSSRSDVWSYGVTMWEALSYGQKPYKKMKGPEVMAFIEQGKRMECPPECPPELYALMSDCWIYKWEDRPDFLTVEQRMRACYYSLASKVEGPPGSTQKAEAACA
# Summary of the method: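 Competition binding format: compounds compete with a bead-immobilized aminopyrido-pyrimidine ligand for ZAP-70 in cell lysate. After bead separation and elution, bound ZAP-70 measured by antibody dot blot with infrared read-out.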
Structure (SMILES),IC50 (Jurkat cells),IC50 (ZAP-70)
"CS(=O)(=O)Nc1ccccc1Nc1nc(Nc2cccc(OCCN3CCOCC3)c2)ncc1F [Example 77, N-(2-(5-fluoro-2-(3-(2-morpholinoethoxy)phenylamino)pyrimidin-4-ylamino)phenyl)methanesulfonamide]",100 to 1000 nM,100 to 1000 nM
"COc1cc(Nc2ncc(F)c(Nc3ccc(OC(C)C)cc3NS(C)(=O)=O)n2)cc(OC)c1OC [Example 182, N-(2-(5-fluoro-2-(3,4,5-trimethoxyphenylamino)pyrimidin-4-ylamino)-5-isopropoxyphenyl)methanesulfonamide]",< 100 nM,< 100 nM
"COc1cccc(Nc2nc(Nc3cc(OC)c(OC)c(OC)c3)ncc2F)c1NS(C)(=O)=O [Example 172, N-(2-(5-fluoro-2-(3,4,5-trimethoxyphenylamino)pyrimidin-4-ylamino)-6-methoxyphenyl)methanesulfonamide]",100 to 1000 nM,100 to 1000 nM
"CCc1cccc(Nc2nc(Nc3cc(OC)c(OC)c(OC)c3)ncc2F)c1NS(C)(=O)=O [Example 169, N-(2-ethyl-6-(5-fluoro-2-(3,4,5-trimethoxyphenylamino)pyrimidin-4-ylamino)phenyl)methanesulfonamide]",100 to 1000 nM,< 100 nM
"COc1ccc(Nc2nc(Nc3cc(OC)c(OC)c(OC)c3)ncc2F)c(NS(C)(=O)=O)c1 [Example 173, N-(2-(5-fluoro-2-(3,4,5-trimethoxyphenylamino)pyrimidin-4-ylamino)-5-methoxyphenyl)methanesulfonamide]",< 100 nM,< 100 nM
"COc1cc(Nc2ncc(Cl)c(Nc3cccc(C)c3NS(C)(=O)=O)n2)cc(OC)c1OC [Example 160, N-(2-(5-chloro-2-(3,4,5-trimethoxyphenylamino)pyrimidin-4-ylamino)-6-methylphenyl)methanesulfonamide]",< 100 nM,< 100 nM
CS(=O)(=O)Nc1ccccc1Nc1nc(Nc2ccc(OCCCN3CCCC3)cc2)ncc1F [Example 92],100 to 1000 nM,100 to 1000 nM
"CCOc1cc(Nc2ncc(F)c(Nc3cccc(C)c3NS(C)(=O)=O)n2)cc(OC)c1OC [Example 117, N-(2-(2-(3-ethoxy-4,5-dimethoxyphenylamino)-5-fluoropyrimidin-4-ylamino)-6-methylphenyl)methanesulfonamide]",100 to 1000 nM,< 100 nM
"COc1cc(Nc2ncc(F)c(Nc3cccc(C)c3NS(C)(=O)=O)n2)cc(OC)c1OCCN1CCCCC1 [Example 113, N-(2-(2-(3,5-dimethoxy-4-(2-(piperidin-1-yl)ethoxy)phenylamino)-5-fluoropyrimidin-4-ylamino)-6-methylphenyl)methanesulfonamide]",100 to 1000 nM,< 100 nM
"COc1cc(Nc2nccc(Nc3cccc(C)c3NS(C)(=O)=O)n2)cc(OCCN2CCCCC2)c1 [Example 177, N-(2-(2-(3-methoxy-5-(2-(piperidin-1-yl)ethoxy)phenylamino)pyrimidin-4-ylamino)-6-methylphenyl)methanesulfonamide formate salt]",100 to 1000 nM,100 to 1000 nM
"COc1cc(Nc2ncc(Cl)c(Nc3ccc4c(c3NS(C)(=O)=O)OCCO4)n2)cc(OC)c1OC [Example 164, N-(6-(5-chloro-2-(3,4,5-trimethoxyphenylamino)pyrimidin-4-ylamino)-2,3-dihydrobenzo[b][1,4]dioxin-5-yl)methanesulfonamide]",< 100 nM,< 100 nM
CS(=O)(=O)Nc1ccccc1Nc1nc(Nc2cccc(OCCCN3CCCCC3)c2)ncc1Cl [Example 134],100 to 1000 nM,< 100 nM

# Further lines, results first:
IC50 (Jurkat cells),IC50 (ZAP-70),Structure (SMILES)
100 to 1000 nM,< 100 nM,"COc1cc(Nc2ncc(Cl)c(Nc3ccccc3NS(C)(=O)=O)n2)ccc1OCCN1CCCCC1 [Example 142, N-(2-(5-chloro-2-(3-methoxy-4-(2-(piperidin-1-yl)ethoxy)phenylamino)pyrimidin-4-ylamino)phenyl)methanesulfonamide hydrochloride]"
< 100 nM,< 100 nM,"COc1cc(Nc2ncc(Cl)c(Nc3ccccc3NS(C)(=O)=O)n2)ccc1OCCN1CCCC1 [Example 141, N-(2-(5-chloro-2-(3-methoxy-4-(2-(pyrrolidin-1-yl)ethoxy)phenylamino)pyrimidin-4-ylamino)phenyl)methanesulfonamide]"
100 to 1000 nM,100 to 1000 nM,"COc1ccc(Nc2ncc(F)c(Nc3ccccc3NS(C)(=O)=O)n2)cc1 [Example 35, N-(2-(5-fluoro-2-(4-methoxyphenylamino)pyrimidin-4-ylamino)phenyl)methanesulfonamide]"
100 to 1000 nM,100 to 1000 nM,"COc1cc(Nc2ncc(Br)c(Nc3ccccc3NS(C)(=O)=O)n2)ccc1C [Example 104, N-(2-(5-bromo-2-(3-methoxy-4-methylphenylamino)pyrimidin-4-ylamino)phenyl)methanesulfonamide]"
< 100 nM,100 to 1000 nM,"COc1ccc(Nc2ncc(Cl)c(Nc3ccccc3NS(C)(=O)=O)n2)cc1 [Example 139, N-(2-(5-chloro-2-(4-methoxyphenylamino)pyrimidin-4-ylamino)phenyl)methanesulfonamide hydrochloride]"
100 to 1000 nM,100 to 1000 nM,"COc1cc(Nc2ncc(F)c(Nc3ccccc3NS(C)(=O)=O)n2)cc(OC)c1 [Example 37, N-(2-(2-(3,5-dimethoxyphenylamino)-5-fluoropyrimidin-4-ylamino)phenyl)methanesulfonamide]"
100 to 1000 nM,1000 to 10000 nM,"CS(=O)(=O)Nc1ccccc1Nc1nc(Nc2ccc(F)cc2)ncc1F [Example 2, N-(2-(5-fluoro-2-(4-fluorophenylamino)pyrimidin-4-ylamino)phenyl)methanesulfonamide]"
< 100 nM,< 100 nM,"CCNC(=O)COc1cccc(Nc2ncc(Cl)c(Nc3ccccc3NS(C)(=O)=O)n2)c1 [Example 151, 2-(3-(5-chloro-4-(2-(methylsulfonamido)phenylamino)pyrimidin-2-ylamino)phenoxy)-N-ethylacetamide 2,2,2-trifluoroacetate]"
100 to 1000 nM,< 100 nM,"COc1ccc(Nc2nc(Nc3cc(OC)c(OC)c(OC)c3)ncc2Br)c(NS(C)(=O)=O)c1 [Example 178, N-(2-(5-bromo-2-(3,4,5-trimethoxyphenylamino)pyrimidin-4-ylamino)-5-methoxyphenyl)methanesulfonamide]"
100 to 1000 nM,100 to 1000 nM,"COc1cc(Nc2ncc(C)c(Nc3ccccc3NS(C)(=O)=O)n2)cc(OC)c1OC [Example 66, N-(2-(5-methyl-2-(3,4,5-trimethoxyphenylamino)pyrimidin-4-ylamino)phenyl)methanesulfonamide]"
< 100 nM,< 100 nM,"CN1CCN(C)C(COc2cccc(Nc3ncc(Cl)c(Nc4ccccc4NS(C)(=O)=O)n3)c2)C1 (stereo not shown) [Example 147, N-(2-(5-chloro-2-(3-((1,4-dimethylpiperazin-2-yl)methoxy)phenylamino)pyrimidin-4-ylamino)phenyl)methanesulfonamide]"
100 to 1000 nM,100 to 1000 nM,"CS(=O)(=O)Nc1ccccc1Nc1nc(Nc2cccc(O)c2)ncc1F [Example 76, N-(2-(5-fluoro-2-(3-hydroxyphenylamino)pyrimidin-4-ylamino)phenyl)methanesulfonamide]"
100 to 1000 nM,1000 to 10000 nM,"CS(=O)(=O)Nc1ccccc1Nc1nc(Nc2ccc3c(c2)OCCO3)ncc1F [Example 4, N-(2-(2-(2,3-dihydrobenzo[b][1,4]dioxin-6-ylamino)-5-fluoropyrimidin-4-ylamino)phenyl)methanesulfonamide]"
100 to 1000 nM,1000 to 10000 nM,"CNCCS(=O)(=O)Nc1ccccc1Nc1nc(Nc2cc(OC)c(OC)c(OC)c2)ncc1F [Example 62, N-(2-(5-fluoro-2-(3,4,5-trimethoxyphenylamino)pyrimidin-4-ylamino)phenyl)-2-(methylamino)ethanesulfonamide]"
< 100 nM,100 to 1000 nM,"CCN(CC)C(=O)COc1cccc(Nc2ncc(Cl)c(Nc3ccccc3NS(C)(=O)=O)n2)c1 [Example 150, 2-(3-(5-chloro-4-(2-(methylsulfonamido)phenylamino)pyrimidin-2-ylamino)phenoxy)-N,N-diethylacetamide]"
100 to 1000 nM,100 to 1000 nM,"COc1cc(Nc2ncc(F)c(Nc3cccc(C)c3NS(C)(=O)=O)n2)cc(OC)c1OC [Example 116, N-(2-(5-fluoro-2-(3,4,5-trimethoxyphenylamino)pyrimidin-4-ylamino)-6-methylphenyl)methanesulfonamide]"
100 to 1000 nM,< 100 nM,"COc1ccc(Nc2ncc(Cl)c(Nc3ccccc3NS(C)(=O)=O)n2)cc1OCCN1CCCCC1 [Example 125, N-(2-(5-chloro-2-(4-methoxy-3-(2-(piperidin-1-yl)ethoxy)phenylamino)pyrimidin-4-ylamino)phenyl)methanesulfonamide]"

# Reference: patent publication US20110098288A1, “SULFONAMIDES AS ZAP-70 INHIBITORS” (priority 2008, published 2011)
